Measurements: article PMC7761779 (Polymers, 2020)
Like-named read-outs stand apart in the source and are kept apart here.

How the values were obtained:
[1] = Dynamic Vapor Sorption (DVS) study of NIA solutions; assay type: physicochemical; conditions: label = vehicle of a 5% (w/v) NIA solution; 5 μL; 32 ± 1 °C, 50 ± 2% RH; n = 3
Experimental: Nitrogen was used as the carrier gas (200 mL/min). To monitor mass differences, 15 mm quartz glass pans connected to a microbalance accurate to 0.00001 mg were employed. Then, 5 μL solutions of 5% NIA (w/v) were added to the pans, and data were recorded using a Universal Analysis 2000 (TA Instrument, New Castle, DE, USA). Temperature and relative humidity (RH) were maintained over the course of the studies at 32 ± 1 °C and 50 ± 2% RH, respectively.

[2] = design: method as in PMID 30529662; conditions: label = neat solvent of the NIA solution; finite dose; porcine skin; cited from earlier work
[3] = design: method as in PMID 30529662; conditions: label = neat solvent of the NIA solution; porcine skin; cited from earlier work
[4] = design: method as in PMID 30529662; conditions: label = solvent; cited from earlier work
[5] = design: method as in Suwanpidokkul et al.; conditions: porcine skin, infinite dose, ref Suwanpidokkul et al., cited from earlier work
[6] = design: method as in PMID 3958901; conditions: PEG 400/water mixtures; cadaver skin; infinite dose; cited from earlier work

Row | Compound | Percentage of applied weight recovered at 24 h (DVS) [1] | Cumulative permeation of NIA at 24 h [2] | Skin retention of NIA [3] | Flux trend with increasing PEG 400 concentration in the formulation [6] | other results
1 | CO[C@H]1CO[C@H]2[C@@H]1OC[C@H]2OC [DMI, dimethyl isosorbide] | 76.3 ± 0.1% | 103.6 μg/cm^2 | 16.7 ± 6.3% |  | 
2 | CCOCCOCCO [TC, Transcutol® P] | 17.6 ± 0.5% | 95.1 μg/cm^2 | 16.4 ± 5.8% |  | Solubility of NIA [4]: 8.0 ± 0.6%
3 | Cc1cn([C@H]2C[C@H](N=[N+]=[N-])[C@@H](CO)O2)c(=O)[nH]c1=O [zidovudine] |  |  |  |  | Flux ([5]; PEG 400/water vehicle): 15.52 ± 0.60 μg/cm^2/h; Flux ([5]; ethanol/water vehicle): 9.96 ± 0.63 μg/cm^2/h; Flux ([5]; isopropanol/water vehicle): 10.35 ± 0.67 μg/cm^2/h
4 | N=C(N)N/N=C/c1c(Cl)cccc1Cl [guanabenz] |  |  |  | drop linearly | 
5 | CC(O)CO (centres unmarked) [PG, propylene glycol] | 44.6 ± 0.02% | 46.0 μg/cm^2 |  |  | 
6 | O=C(O)CCc1nc(-c2ccccc2)c(-c2ccccc2)o1 [oxaprozin] |  |  |  | drop linearly | 
